# Test results reported in patent US11260050B2, “Combination of cotinine plus antioxidant for treatment-resistant depression and correction of astrocytes functional deficit induced by depression and other neuropathological” (UNIVERSIDAD SAN SEBASTIAN, priority 2017, dated 2022).
# Tests used:
# [1] = tested on: mice subjected to restraint stress; experiment: Light-dark box after restraint stress (Example 1, Experiment 1); assay type: in vivo, C57BL/6 mice; settings: RS mice treated with cotinine; p=0.035
# Procedure: Mice were treated immediately after the 21 days of immobilization stress (6 h/day) until euthanasia. Mice (n=5-8/condition) received daily treatments with 1. PBS (phosphate buffer saline, pH 7.4) via intranasal (2×12 μl/nostril), 2. PBS via gavage (50 μl); 3. Cotinine dissolved in PBS via oral (gavage, (0.5 mg/kg; Cot 0.5); 4. Cotinine dissolved in PBS via intranasal (Cot IN, 10 mg/ml, 2×12 μl/nostril).
# To induce chronic stress, the restraint stress paradigm was used as previously described. Mice are immobilized in 50 ml falcon plastic tubes that were attached to mouse cages. The immobilization proceeded during 6 h from 9:00 AM to 3:00 PM in absence of treatments. Tubes have holes in the opposite side of the tube to allow the animal breathing and urination. Mice were almost completely immobilized for 6 h/day for 21 days after which they were permitted freely to move, eat and drink.
# Behavioral analysis was performed using the Any-maze® software (Stoelting CO, USA) to track the activity of animals. Mice were tested for depressive behavior, anxiety, locomotor activity and working memory using the Porsolt's test; Light-dark box (LDB) and the elevated plus Maze (EPM), open field (OF), and Novel object recognition (NOR), respectively.
# [2] = tested on: mice subjected to fear conditioning; experiment: Novel object recognition after fear conditioning (Example 1, Experiment 3); assay type: in vivo, C57BL/6 mice; settings: FC mice, IN post-treatment
# Procedure: (§1) Mice were treated via IN 2 hours after fear conditioning and continuously until euthanasia.
# (§2) Mice (n=5-6/condition) received daily treatments with 1. PBS (phosphate buffer saline, pH 7.4) via intranasal (2×12 μl/nostril), 2. Cotinine dissolved in PBS via intranasal (Cot IN, 10 mg/ml, 2×12 μl/nostril); 3. Cotinine+krill oil both dissolved in PBS via intranasal (Cot IN, 10 mg/ml+KO, 48 mg/ml, 2×12 μl/nostril).
# Contextual FC was performed as described. The conditioning chamber used is surrounded by a sound-attenuating box with a camera connected to freeze frame software (MED Associates Inc.), also equipped to provide a background white noise (72 dB). The conditioning chamber (33 cm×20 cm×22 cm) contains in one side a speaker and in the opposite slide has a 24V light. The chamber has a 36-bar insulated shock grid floor. […] Freezing behavior that is defined as the absence of all movement except the one needed for breathing was assessed using the FreezeView Software (MED Associates Inc.).
# After a habituation step in the OF arena, each mouse was individually placed in the apparatus containing two identical objects located equidistant to each other (familiarization phase) and left to explore the objects for 5 min. […] The time exploring the two objects was recorded during 5 min. […]
# [3] = tested on: mice subjected to fear conditioning; experiment: Elevated plus maze after fear conditioning (Example 1, Experiment 3); assay type: in vivo, C57BL/6 mice; settings: FC mice, IN post-treatment; Veh 68.14±5.573, N=5
# Procedure: as §1, §2
# Contextual FC was performed as described. The conditioning chamber used is surrounded by a sound-attenuating box with a camera connected to freeze frame software (MED Associates Inc.), also equipped to provide a background white noise (72 dB). The conditioning chamber (33 cm×20 cm×22 cm) contains in one side a speaker and in the opposite slide has a 24V light. The chamber has a 36-bar insulated shock grid floor. Mice were placed in the conditioning chamber for 2 min before the onset of a discrete tone (a sound that will last 30 seconds (sec) at 2,800 Hz and 85 dB). In the last two seconds of this tone, mice received a foot shock of 1 mA and kept in the conditioning chamber for 2 min and then returned to their cages. Between trials, the chamber was sanitized with 70% ethanol and dried. Freezing behavior that is defined as the absence of all movement except the one needed for breathing was assessed using the FreezeView Software (MED Associates Inc.). […]
# restrained mice = experiment: Novel object recognition after chronic restraint stress (Example 2); assay type: in vivo, C57BL/6 male mice; settings: stressed mice, IN cotinine vs vehicle
# Procedure: Mice between 2-3 months of age after one week of acclimatization were randomly divided into two groups. Stressed mice were subjected to restraint stress. Control (non-restrained) mice were allowed to move freely during this period. After the stress exposure period, mice were divided into three experimental groups: 1) Non-restrained mice treated with vehicle (PBS, pH 7.4) serving as unstressed controls (n=8); 2) Restrained mice (RS) treated with vehicle (n=8); 3), RS mice treated with 24 μl of a cotinine solution (10 mg/ml in PBS, pH 7.4) via intranasal route of administration (n=6). Treatments were administered daily until euthanasia. After two weeks of treatments mice were behaviorally tested and euthanized (FIG. 10)
# Intranasal delivery was performed as previously described (Hanson and Frey, 2007). Mice at 2-3 months of age were hand-restrained, positioned in a supine position, and administered two 12 μl drops of cotinine solution (10 mg/ml in PBS), or PBS alone, into both nares. Mice were given an extra 12 μl treatment drop if the mouse expelled out the solution. Mice were kept in the supine posture for 5 seconds after delivery to facilitate the delivery. […]
# The NOR test starts with a habituation step that consists in putting each mouse to freely explore an open and empty testing arena (40 cm×40 cm×35 cm) for 10 min. […] The time exploring the objects was recorded during 5 min in both steps. […]
compound,measurement,setting,value
"CN1C(=O)CC[C@H]1c1cccnc1 [Cotinine, (5S)-1-methyl-5-(3-pyridyl) pyrrolidin-2-one]",number of entries to the light zone (light-dark box),[1],almost completely restored the number of entries to the light zone
same,number of entries to the new object area (NOR),"[2]; Cotinine p<0.05, Cotinine+KO p<0.01",higher number of entries to the new object area than PBS-treated FC mice
same,time exploring the new object (NOR),[2]; both p<0.05,spent more time than PBS-treated FC mice
same,time spent in the open arms (EPM),[3],increase in the time spent in the open arms but the difference did not reached significance
same,exploration index for the new object (NOR),restrained mice,increase in the exploration index when compared to vehicle-treated stressed mice but the difference did not reach statistical significance
same,number of entries to the novel object area (NOR),restrained mice; p<0.05,significantly higher number of entries to the novel object area
